The text below walks through data of patent US20080008707A1, “Denatured collagen peptides and uses thereof” (Cell-Matrix, Inc., priority 2006, published 2008).

Assay [1] concerns HUI77 binding to denatured collagen IV. The assay is described as follows: Competition ELISA: synthetic peptides blocking HUI77 binding to heat denatured collagen IV. More on the design: species or system human. The settings on record: average of two studies. How it is done: (§1) The ELISA was conducted as follows: wells of a 96-well microtiter plate (Immulon, 4 HBX flat-bottomed, Thermo Electron Corporation, Waltham, Mass.) were coated with 100 μL/well of dn-collagen IV at 10 μg/mL in Phosphate Buffered Saline (PBS) overnight at 4° C. The plate was washed 3 times (3×) with PBS containing 0.05% (v/v) Tween-20 (PBST) using an automated plate washer.
(§2) The plate was blocked by adding 300 μL/well of 1% BSA (w/v) in PBS for 1 hour at 25° C. followed by washing 3× in PBST as above.
(§3) Solutions of D93 or HUI77 were prepared with various concentrations of peptide or antibody inhibitor and incubate for 15 minutes. D93 or HUI77 was prepared at 200 ng/mL in 1% BSA/PBS.
(§4) For antibody blocking studies using synthetic peptides: peptide inhibitor stock solutions were prepared at 2 mM, 0.2 mM, 0.02 mM, and 0.002 mM in 1% BSA/PBS. 500 μL of a 2 mM peptide solution in 1% BSA/PBS was prepared and diluted 1:10 in 500 μL a total of three times to make peptide inhibitor concentrations.
(§5) 200 μL of D93 or HUI77 at 200 ng/mL solution was combined with 200 μL of peptide or antibody inhibitor solution and incubated for 15 minutes at room temperature.
(§6) D93 or HUI77 with various concentrations of inhibitors (2 mM, 0.2 mM, 0.02 mM, and 0.002 mM) were added to microplate wells and incubated for 1 hour at 25° C. The plate was washed 3× in PBST as above.
(§7) To each microtiter plate well, 100 μL of diluted anti-human IgG or anti-mouse IgM conjugated to horseradish peroxidase (HRP) in PBST was added and incubated for one hour at 25° C.: (a) for D93: Goat anti-human IgG-HRP (Jackson ImmunoResearch, Catalog No. 109-035-088) was used at 1:20,000 and (b) for HUI77: Goat anti-mouse IgM-HRP was used at 1:4,000. Plates were washed 3× in PBST as above.
(§8) Tetramethylbenzidine (TMB) substrate (100 μL; Pierce Chemicals)) was added to wells and the plates were allowed to develop at room temperature for 15 minutes in the dark. Substrate development was stopped by adding 50 μL/well of 2N H2SO4. The microtiter […] plates were read at 450 nm within five minutes of adding the H2SO4. Reactivity was measured with a microplate reader (Molecular Devices, Sunnyvale, Calif.) at a wavelength of 450 nm and analyzed using SOFTMax® PRO4.0 (Molecular Devices). All samples were tested in triplicate.
(§9) Individual peptides with amino acid substitutions and deletions were also synthesized based on the primary and secondary peptide arrays. […] The inhibitory activity of the individual peptides was tested by ELISA as previously described to measure binding of D93 or HUI77 to denatured collagen where peptides and antibodies were prepared at a 2× concentration and pre-incubated for 15 minutes prior to adding to microtiter plates coated with dn-collagen.
(§10) 96-well plates were coated with 100 μL/well of denatured (dn) collagen IV at 10 μg/mL in phosphate buffered saline (PBS) overnight at 4° C. followed by washing the plates in an automated plate washer 3 times in PBS containing 0.05% (v/v) Tween-20 (PBST). Non-specific binding was prevented by blocking the wells by adding 300 μL/well of 1% bovine serum albumin (BSA) (w/v) in PBS for 1 hour (hr) at 25° C. The plates were washed as above.
(§11) Solutions of D93 and HUI77 antibodies were prepared with various concentrations of inhibitor and incubated for 15 minutes. Briefly, 20 mLs of D93 or HUI77 were prepared at 200 ng/mL in 1% BSA/PBS. Solutions of peptide inhibitors (2 mM, 0.2 mM, […]) were prepared in 1% BSA/PBS. Equal volumes of antibodies and peptide inhibitors were combined: 200 μL of D93 or HUI77 (200 ng/mL solution) with 200 μL of each peptide solution.
(§12) 100 μL/well of D93 or HUI77 at 100 ng/mL with various concentrations of inhibitors were added to the wells in triplicate and incubated for 1 hour at 25° C. The plates were washed as described above.
(§13) 100 μL/well of secondary horseradish peroxidase (HRP)-conjugated antibody in PBST was added to each well and incubated for 1 hour (hr) at 25° C. […]

Assay [2] relates to D93 binding to human denatured-collagen IV. The assay is described as follows: Competition ELISA: synthetic peptides blocking D93 binding to heat denatured collagen IV. Particulars: average of two studies, vs 1% BSA/PBS alone. As to the method:
as §1, §2, §3, §4, §5, §6, §7, §8, §9, §10, §11, §12, §13

Assay [3] concerns the target HUI77, murine IgM anti-denatured-collagen monoclonal antibody. The assay is described as follows: competition ELISA on coated dn-collagen IV. Background: ELISA stands for enzyme-linked immunosorbent assay.
Assay [4] addresses D93, recombinant humanized IgG1 kappa antibody targeting denatured-collagen. The assay is described as follows: competition ELISA on coated human dn-collagen IV.
[5] abbreviates: peptide inhibitor concentration 10 μM, listed as 11 (19), 10 µM.
The mark [6] stands for this setting: peptide inhibitor concentration 100 μM, listed as 11 (19), 100 µM.
The mark [7] stands for this setting: peptide inhibitor concentration 1000 μM, listed as 11 (19), 1000 µM.
Where [8] appears, read: peptide inhibitor concentration 10 μM.
Setting [9] is: peptide inhibitor concentration 100 μM.
[10] abbreviates: peptide inhibitor concentration 1000 μM.
[11] abbreviates: peptide inhibitor concentration 1 μM.

Square brackets hold non-standard residues; d marks the D form. Ends that are not written are not given here. Hyp = O=C(O)[C@@H]1C[C@@H](O)CN1

Chain of D93, recombinant humanized IgG1 kappa antibody targeting denatured-collagen (heavy, as listed by the source, chain 1 of 2): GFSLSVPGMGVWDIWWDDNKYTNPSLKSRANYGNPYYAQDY
Chain of D93, recombinant humanized IgG1 kappa antibody targeting denatured-collagen (light, as listed by the source, chain 2 of 2): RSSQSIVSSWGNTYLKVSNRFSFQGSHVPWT

Consider LPGPPGPPGPY [SEQ ID NO: 19], for which the “% INHIBITION OF BINDING OF HUI77 TO DENATURED COLLAGEN IV” value in assay [1] (setting [5]) was determined as 6.5%; in assay [1] (setting [6]), 18.5%; in assay [1] (setting [7]), 87%. Also, the “% INHIBITION OF BINDING OF D93 TO HUMAN DENATURED-COLLAGEN IV” value was 32% in assay [2] (peptide inhibitor concentration 1 μM, listed as 11 (19), 1 µM); 83% in assay [2] (setting [5]); 93.5% in assay [2] (setting [6]); 93.5% in assay [2] (setting [7]).

For the molecule LPGSPG (L[Hyp]GS[Hyp]G) [SEQ ID NO: 26], the “% INHIBITION OF BINDING OF HUI77 TO DENATURED COLLAGEN IV” value in assay [1] (setting [8]) is listed as 8%; in assay [1] (setting [9]), 10.5%; in assay [1] (setting [10]), 8.5%. In addition, the “% INHIBITION OF BINDING OF D93 TO HUMAN DENATURED-COLLAGEN IV” value in assay [2] (setting [11]) is 9.5%; in assay [2] (setting [8]) it was 3.5%; in assay [2] (setting [9]), 2.5%; in assay [2] (setting [10]), 13.5%.

Take LPGTPG (L[Hyp]GT[Hyp]G) [SEQ ID NO: 27]: the entries for the “% INHIBITION OF BINDING OF HUI77 TO DENATURED COLLAGEN IV” value in assay [1] (setting [8]), in assay [1] (setting [9]) and in assay [1] (setting [10]) were 3.5%, 4.5% and 6%, respectively. For the same molecule, the “% INHIBITION OF BINDING OF D93 TO HUMAN DENATURED-COLLAGEN IV” value in assay [2] (setting [11]) is given as 7%; in assay [2] (setting [8]), 2%; in assay [2] (setting [9]), 4.5%; in assay [2] (setting [10]), 24%.

With “PGAKGLPGP ([Hyp]GAKGLPGP) [SEQ ID NO: 17]”, the results for the “% INHIBITION OF BINDING OF HUI77 TO DENATURED COLLAGEN IV” value in assay [1] (setting [8]), in assay [1] (setting [9]) and in assay [1] (setting [10]) were 8%, 10.5% and 10%, respectively. In addition, the “% INHIBITION OF BINDING OF D93 TO HUMAN DENATURED-COLLAGEN IV” value in assay [2] (setting [11]) turned out to be 11%; in assay [2] (setting [8]) it was 6%; in assay [2] (setting [9]) it was 4%; in assay [2] (setting [10]), 11.5%.

As to “PGPPGPPGP (PGP[Hyp]GP[Hyp]GP) [SEQ ID NO: 29]”, the “% INHIBITION OF BINDING OF HUI77 TO DENATURED COLLAGEN IV” value in assay [1] (setting [8]) amounted to 10.5%; in assay [1] (setting [9]), 12.5%; in assay [1] (setting [10]) it was 63%. Further, the “% INHIBITION OF BINDING OF D93 TO HUMAN DENATURED-COLLAGEN IV” value in assay [2] (setting [11]) came to 11.5%; in assay [2] (setting [8]), 40.5%; in assay [2] (setting [9]), 87.5%; in assay [2] (setting [10]) it was 93.5%.

With “PGPPGPPGPY (PGP[Hyp]GP[Hyp]GPY) [SEQ ID NO: 28]”, the “% INHIBITION OF BINDING OF HUI77 TO DENATURED COLLAGEN IV” value was 7% in assay [1] (setting [8]), 16% in assay [1] (setting [9]) and 86.5% in assay [1] (setting [10]). In addition, the “% INHIBITION OF BINDING OF D93 TO HUMAN DENATURED-COLLAGEN IV” value in assay [2] (setting [11]) was 33.5%; in assay [2] (setting [8]), 83%; in assay [2] (setting [9]), 93.5%; in assay [2] (setting [10]), 93.5%.

In assay [3], “synthetic peptide No. 21, GPPG (SEQ ID NO: 34)” displayed a % inhibition of HUI77 binding to dn-collagen IV, peptide 10 µM of 6.5%; a % inhibition of HUI77 binding to dn-collagen IV, peptide 100 µM of 9%; a % inhibition of HUI77 binding to dn-collagen IV, peptide 1000 µM of 14%. Moreover, in assay [4], the % inhibition of D93 binding to dn-collagen IV, peptide 1 µM amounted to 9.5%; the % inhibition of D93 binding to dn-collagen IV, peptide 10 µM stood at 6.5%; the % inhibition of D93 binding to dn-collagen IV, peptide 100 µM was determined as 11%; the % inhibition of D93 binding to dn-collagen IV, peptide 1000 µM was determined as 52%.

For L[Hyp]GP[Hyp]G [synthetic peptide No. 16, LPGPPG (SEQ ID NO: 24)], in assay [3], the % inhibition of HUI77 binding to dn-collagen IV, peptide 10 µM was determined as 3%; the % inhibition of HUI77 binding to dn-collagen IV, peptide 100 µM stood at 8%; the % inhibition of HUI77 binding to dn-collagen IV, peptide 1000 µM worked out at 64%. Besides, in assay [4], the % inhibition of D93 binding to dn-collagen IV, peptide 1 µM was found to be 6.5%; the % inhibition of D93 binding to dn-collagen IV, peptide 10 µM amounted to 12%; the % inhibition of D93 binding to dn-collagen IV, peptide 100 µM amounted to 52.5%; the % inhibition of D93 binding to dn-collagen IV, peptide 1000 µM turned out to be 90%.

In assay [3], LPGPPGPPG (also: hydroxyproline at marked P positions, if any, marking lost) [synthetic peptide No. 18, … (SEQ ID NO: 22)] registered a % inhibition of HUI77 binding to dn-collagen IV, peptide 10 µM of 6.5%; a % inhibition of HUI77 binding to dn-collagen IV, peptide 100 µM of 9%; a % inhibition of HUI77 binding to dn-collagen IV, peptide 1000 µM of 6%. Besides, in assay [4], the % inhibition of D93 binding to dn-collagen IV, peptide 1 µM was 6%; the % inhibition of D93 binding to dn-collagen IV, peptide 10 µM was 5%; the % inhibition of D93 binding to dn-collagen IV, peptide 100 µM was determined as 3%; the % inhibition of D93 binding to dn-collagen IV, peptide 1000 µM stood at 17.5%.

Take L[Hyp]GL[Hyp]G [synthetic peptide No. 14, LPGLPG (SEQ ID NO: 25)]: in assay [3], the % inhibition of HUI77 binding to dn-collagen IV, peptide 10 µM came to 6%; the % inhibition of HUI77 binding to dn-collagen IV, peptide 100 µM is 9.5%; the % inhibition of HUI77 binding to dn-collagen IV, peptide 1000 µM turned out to be 17.5%. Also, in assay [4], the % inhibition of D93 binding to dn-collagen IV, peptide 1 µM came out at 8%; the % inhibition of D93 binding to dn-collagen IV, peptide 10 µM turned out to be 6.5%; the % inhibition of D93 binding to dn-collagen IV, peptide 100 µM worked out at 6.5%; the % inhibition of D93 binding to dn-collagen IV, peptide 1000 µM came to 46.5%.

For the molecule L[Hyp]GF[Hyp]G [synthetic peptide No. 19, LPGFPG (SEQ ID NO: 23)], in assay [3], the % inhibition of HUI77 binding to dn-collagen IV, peptide 10 µM was determined as 7%; the % inhibition of HUI77 binding to dn-collagen IV, peptide 100 µM was 14.5%; the % inhibition of HUI77 binding to dn-collagen IV, peptide 1000 µM is 75%. Besides, in assay [4], the % inhibition of D93 binding to dn-collagen IV, peptide 1 µM was determined as 10.5%; the % inhibition of D93 binding to dn-collagen IV, peptide 10 µM was 6%; the % inhibition of D93 binding to dn-collagen IV, peptide 100 µM was 8%; the % inhibition of D93 binding to dn-collagen IV, peptide 1000 µM is 32%.
